Assay results taken from ChEMBL document CHEMBL4616634, “4β-Hydroxywithanolide E from Goldenberry (Whole Fruits of Physalis peruviana L.) as a Promising Agent against Chronic Obstructive Pulmonary Disease” (J Nat Prod, 2020).
Activity calls are given as the source filed them.

Experiments:
Assay type in all cases: functional, organism-based
[1] = system: Mus musculus; test: Antiinflammatory activity in C57BL/6 mouse model of CS-induced pulmonary injury assessed as reduction in goblet cell hyperplasia in peribronchial in lungs at 50 mg/kg, ip for 5 days by hematoxylin and eosin staining based fluorescence microscopic analysis
[2] = system: Mus musculus; test: Antiinflammatory activity in C57BL/6 mouse model of CS-induced pulmonary injury assessed as reduction in distinct infiltration of leukocytes in lungs at 50 mg/kg, ip for 5 days by hematoxylin and eosin staining based fluorescence microscopic analysis
[3] = system: Mus musculus; test: Antiinflammatory activity in C57BL/6 mouse model of CS-induced pulmonary injury assessed as reduction in 8-oxo-dG in lungs at 50 mg/kg, ip for 5 days by ELISA
[4] = system: Mus musculus; test: Antiinflammatory activity in C57BL/6 mouse model of CS-induced pulmonary injury assessed as reduction in thickening of the alveolar septa in lungs at 50 mg/kg, ip for 5 days by hematoxylin and eosin staining based fluorescence microscopic analysis
[5] = system: Mus musculus; test: Antiinflammatory activity in C57BL/6 mouse model of CS-induced pulmonary injury assessed as reduction in goblet cell hyperplasia in perivascular areas in lungs at 50 mg/kg, ip for 5 days by hematoxylin and eosin staining based fluorescence microscopic analysis
[6] = system: Mus musculus; test: Antiinflammatory activity in C57BL/6 mouse model of CS-induced pulmonary injury assessed as reduction in hyperplasia of pneumo-cytes in lungs at 50 mg/kg, ip for 5 days by hematoxylin and eosin staining based fluorescence microscopic analysis
[7] = system: Mus musculus; test: Antiinflammatory activity in C57BL/6 mouse model of CS-induced pulmonary injury assessed as reduction in 8-oxo-dG in lungs at 1 mg/kg, ip for 5 days by ELISA
[8] = system: Mus musculus; test: Antiinflammatory activity in C57BL/6 mouse model of CS-induced pulmonary injury assessed as reduction in thickening of the alveolar septa in lungs at 1 mg/kg, ip for 5 days by hematoxylin and eosin staining based fluorescence microscopic analysis
[9] = system: Mus musculus; test: Antiinflammatory activity in C57BL/6 mouse model of CS-induced pulmonary injury assessed as reduction in distinct infiltration of leukocytes in lungs at 1 mg/kg, ip for 5 days by hematoxylin and eosin staining based fluorescence microscopic analysis
[10] = system: Mus musculus; test: Antiinflammatory activity in C57BL/6 mouse model of CS-induced pulmonary injury assessed as reduction in hyperplasia of pneumo-cytes in lungs at 1 mg/kg, […] by hematoxylin and eosin staining based fluorescence microscopic analysis
[11] = system: Mus musculus; test: Antiinflammatory activity in C57BL/6 mouse model of CS-induced pulmonary injury assessed as reduction in goblet cell hyperplasia in perivascular areas in lungs at 1 mg/kg, ip for 5 days by hematoxylin and eosin staining based fluorescence microscopic analysis
[12] = system: Mus musculus; test: Antiinflammatory activity in C57BL/6 mouse model of CS-induced pulmonary injury assessed as reduction in goblet cell hyperplasia in peribronchial in lungs at 1 mg/kg, ip for 5 days by hematoxylin and eosin staining based fluorescence microscopic analysis

Measured: Activity

CC(C)(C)c1cc(O)ccc1O
active: [1] | [2] | [3] | [4] | [5] | [6]

C[C@@H]1C[C@H]2[C@@H]3CCC4=CC(=O)C=C[C@]4(C)[C@@]3(F)[C@@H](O)C[C@]2(C)[C@@]1(O)C(=O)CO
active: [7] | [8] | [9] | [10] | [11] | [12]
